Experimental data reported in patent US7655645B2, “Indole derivatives” (N.V. Organon, priority 2007, dated 2010).

Target: T1, human CB1 receptor (Homo sapiens, UniProt P21554)
T1 construct: expressed in transfected cells; host or cells: CHO (Chinese Hamster Ovary) cells
Assay: In-vitro determination of efficacy and potency at the human CB1 receptor expressed in CHO cells (luciferase reporter assay)
Format: cell-based
Conditions: CHO cells expressing the human CB1 receptor and a luciferase reporter gene; 5 h incubation at 37° C.
Method: Methods to determine receptor binding as well as in vitro biological activity of cannabinoid receptor modulators are well known in the art. In general, expressed receptor is contacted with the compound to be tested and binding or stimulation or inhibition of a functional response is measured.
In-Vitro Determination of Efficacy and Potency at the Human CB1 Receptor Expressed in CHO Cells
Chinese Hamster Ovary (CHO) cells expressing the human CB1 receptor and a luciferase reporter gene were suspended in phenol red/serum free DMEM/F-12 nut mix containing penicillin/streptomycin (50 U/50 μg/ml) and fungizone (1 μg/ml) and seeded into 96 well plates at a density of 3×10^4 cells per well (100 μl final volume). Cells were incubated overnight (approx. 18 h at 37° C., 5% CO2/95% air) prior to assay.
The test compound (10 mM solution in dimethylsulfoxide) was diluted in F12 Nut Mix to give a range of stock solutions from 0.11 mM to 0.11 nM. The stock solutions (10 μl) were added directly to the relevant wells. The plates were incubated at 37° C. for 5 h to allow agonist-induced expression of the luciferase enzyme. Under subdued light, LucLite substrate (Packard; reconstituted as per manufacturer's instructions; 100 μl) was added to each well. Plates were covered with Top Seal and then incubated at room temperature for 5 minutes before counting on the Packard TopCount (single photon counting, 0.01 minute count time, 5 minute count delay).
A “best-fit” curve was fitted by a minimum sum of squares method to the plot of counts per second (CPS) against compound concentration (M) to obtain an EC50 value.

T1 sequence (P21554 whole entry): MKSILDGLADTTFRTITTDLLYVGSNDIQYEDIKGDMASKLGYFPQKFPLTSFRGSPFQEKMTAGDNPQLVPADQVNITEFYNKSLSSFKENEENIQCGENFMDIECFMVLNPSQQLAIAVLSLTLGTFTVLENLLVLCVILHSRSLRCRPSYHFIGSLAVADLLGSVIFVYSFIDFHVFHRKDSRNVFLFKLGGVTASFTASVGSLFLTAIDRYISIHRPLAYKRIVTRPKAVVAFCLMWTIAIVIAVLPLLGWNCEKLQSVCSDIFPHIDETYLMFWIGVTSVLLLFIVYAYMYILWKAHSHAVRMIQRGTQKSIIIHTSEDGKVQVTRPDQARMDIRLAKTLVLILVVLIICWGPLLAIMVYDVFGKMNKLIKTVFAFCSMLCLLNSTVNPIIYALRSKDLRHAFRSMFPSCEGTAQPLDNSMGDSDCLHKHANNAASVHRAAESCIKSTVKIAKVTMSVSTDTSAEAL

Question: With `NC(=O)CN1CCN(Cc2nc(-c3cn(CC4CCOCC4)c4c(Cl)cccc34)ns2)CC1` [Example 1, 3-({5-[4-(Carbamoylmethyl)piperazin-1-yl]methyl}-[1,2,4]-thiadiazol-3-yl)-7-chloro-1-(tetrahydropyran-4-yl)methyl-1H-indole] as the molecule, how does the EC50 read?
Answer: 15.8 nM

Question: With `CCNC(=O)CN1CCN(Cc2nc(-c3cn(CC4CCOCC4)c4c(Cl)cccc34)ns2)CC1` [Example 3, 7-Chloro-3-({5-[4-(ethylcarbamoyl)methylpiperazin-1-yl]methyl}-[1,2,4]-thiadiazol-3-yl)-1-(tetrahydropyran-4-yl)methyl-1H-indole] as the molecule, how does the EC50 read?
Answer: 39.8 nM

Question: Which EC50 does the source give for `CCc1cccc2c(-c3nsc(CN4CCN(CC(=O)NC(C)C)CC4)n3)cn(CC3CCOCC3)c12` [Example 6b, 7-Ethyl-3-({5-[4-(N-isopropylcarbamoyl)methylpiperazin-1-yl]methyl}-[1,2,4]-thiadiazol-3-yl)-1-(tetrahydropyran-4-yl)methyl-1H-indole] here?
Answer: 50.1 nM

Question: `CCc1cccc2c(-c3nsc(CN4CCN(CC(=O)OC)CC4)n3)cn(CC3CCOCC3)c12` [Example 6d, 7-Ethyl-3-({5-[4-(methoxycarbonylmethyl)piperazin-1-yl]methyl}-[1,2,4]-thiadiazol-3-yl)-1-(tetrahydropyran-4-yl)methyl-1H-indole] was tested. Which EC50 did it give?
Answer: 63.1 nM

Question: With `COc1cccc2c(-c3nsc(CN4CCN(CC(N)=O)CC4)n3)cn(CC3CCOCC3)c12` [Example 7a, 3-({5-[4-(Carbamoylmethyl)piperazin-1-yl]methyl}-[1,2,4]-thiadiazol-3-yl)-7-methoxy-1-(tetrahydropyran-4-yl)methyl-1H-indole] as the molecule, how does the EC50 read?
Answer: 100 nM

Question: How did the EC50 turn out when `NC(=O)CN1CCN(Cc2nc(-c3cn(CC4CCOCC4)c4c(Cl)cccc34)no2)CC1` [Example 11, 3-({5-[4-(Carbamoylmethyl)piperazin-1-yl]methyl}-[1,2,4]-oxadiazol-3-yl)-7-chloro-1-(tetrahydropyran-4-yl)methyl-1H-indole] was run?
Answer: 79.4 nM

Question: With `O=S1(=O)CCC(Cn2cc(-c3noc(CN4CCN(Cc5ncon5)CC4)n3)c3cccc(Cl)c32)CC1` [Example 17, 7-Chloro-3-({5-[4-([1,2,4]oxadiazol-3-ylmethyl)piperazin-1-yl]methyl}-[1,2,4]-oxadiazol-3-yl)-1-(1,1-dioxo-hexahydrothiopyran-4-yl)methyl-1H-indole] as the molecule, how does the EC50 read?
Answer: 158 nM

Question: For `NC(=O)CN1CCCN(Cc2nc(-c3cn(CC4CCOCC4)c4c(Cl)cccc34)no2)CC1` [Example 21d, 3-{5-[4-(Carbamoylmethyl)-homopiperazin-1-ylmethyl]-[1,2,4]-oxadiazol-3-yl}-7-chloro-1-[(tetrahydropyran-4-yl)methyl]-1H-indole], which EC50 is on record?
Answer: 63.1 nM

Question: With `CNC(=O)CN1CCN(Cc2nc(-c3cn(CC4CCOCC4)c4c(Cl)cccc34)no2)C[C@H]1CO` [Example 24, (S)-7-Chloro-3-[5-[3-hydroxymethyl-4-(methylcarbamoylmethyl)piperazin-1-ylmethyl]-[1,2,4]-oxadiazol-3-yl]-1-[(tetrahydropyran-4-yl)methyl]-1H-indole] as the molecule, how does the EC50 read?
Answer: 12.6 nM

Question: With `NC(=O)CN1CCN(Cc2csc(-c3cn(CC4CCOCC4)c4c(Cl)cccc34)n2)CC1` [Example 31, 3-({4-[4-(Carbamoylmethyl)piperazin-1-yl]methyl}-[1,3]-thiazol-2-yl)-7-chloro-1-(tetrahydropyran-4-yl)methyl-1H-indole] as the molecule, how does the EC50 read?
Answer: 63.1 nM
